Key:
[1] = pH cycling study: remineralization of artificial lesions (SMH, EFU); design: species or system Bovine; conditions: five days, calcium compounds used together with 100 ppm F treatments
Description: A pH cycling study was performed. The study was developed to simulate the spike in acid production after three meals during the course of a day.
Bovine enamel specimens were polished and artificial lesions formed by immersion of the specimens in a lesion forming solution consisting of 0.1 M lactic acid and 0.2% Carbopol C907 which was 50% saturated with hydroxyapatite and adjusted to pH 5.0. The average specimen surface microhardness (SMH) was determined from four indentations on the surface of each specimen, using a Vickers hardness indenter at a load of 200 g for 15 seconds. […] Specimens were divided into subgroups of 18 specimens balanced by post-demineralization surface microhardness (SMH) values.
Remineralization efficacy was evaluated under two different cyclic treatment regimens. Both regimens consisted of three one-minute fluoride treatment periods (100 ppm, pH=6.5), and three one-hour acid challenges in the lesion forming solution, with calcium introduced during the acid challenges.
The difference between the two treatment regimens was the relative order of the fluoride treatments and the acid challenges. In Regimen I, shown in Table 1, the demineralization event (Demin: Lactic Acid Challenge) occurred first, followed by the remineralization event (Remin: Artificial Saliva Soak). In Regimen II, shown in Table 2, the order of events was reversed, and the remineralization event occurred first, followed by the demineralization event.
During the acid challenge periods (Demin: Lactic Acid Challenge), a 15 ml aliquot of the lesion forming solution was transferred to a treatment beaker containing six enamel specimens. Calcium compounds at equimolar calcium concentration, were introduced to the solution 20 minutes after the start of the acid challenge.
The pH cycling regimens were repeated for five consecutive days. […] As a negative control, the calcium sources, as well as the fluoride source, were replaced with water. Also, for comparison purposes, a study was performed with only the fluoride source.
After five days of treatment and pH cycling, remineralization efficacy was measured from change in surface microhardness (SMH) and enamel fluoride uptake (EFU). The surface microhardness was measured as described above, where the indentations were measured next to the baseline indentations. The fluoride content was determined by micro-drilling to a depth of 100 micron into each tooth. The enamel powder from the drill hole was collected, dissolved (20 microliter of HClO4, 40 microliter Citrate/EDTA Buffer and 40 microliter deionized (DI) water) and analyzed for fluoride by comparison to a similarly prepared standard curve.

[2] = pH study: change in pH of lesion forming solution after addition of calcium compounds; type: physicochemical; conditions: 8 mM Ca added to lesion forming solution (pH 5.0), stirred 30 minutes at 37 degrees C.

For `O=P([O-])([O-])[O-].O=P([O-])([O-])[O-].[Ca+2].[Ca+2].[Ca+2]` [Alpha-Tricalcium Phosphate], the “EFU, comparison between treatment groups (in words)” value (“EFU … (in words)” below) ([1]; Regimen I) was “comparable to the EFU of the highly soluble calcium compound (Calcium Chloride Dihydrate) treated specimens”, the “SMH, comparison between treatment groups (in words)” value (from here on “SMH … (in words)”) ([1]; Regimen I) was “comparable to the SMH of the highly soluble calcium compound (Calcium Chloride Dihydrate) treated specimens” and the “EFU … (in words)” value ([1]; Regimen II) was “equivalent to the EFU of the specimens only treated with 100 ppm F”. The “SMH … (in words)” value ([1]; Regimen II) was “comparable to the SMH of the specimens only treated with 100 ppm F” and the ΔpH [2] was “+0.33”.
With `O.O.[Ca+2].[Cl-].[Cl-]` [Calcium Chloride Dihydrate, reference compound] the “EFU … (in words)” value ([1]; Regimen II) was “highest values of EFU” and the “SMH … (in words)” value ([1]; Regimen II) was “highest values of SMH”.

From patent US11857653B2
